Molecules are shown by their SMILES. Where two headings read alike, the source gives them in different places.

Data on one compound can be found in patent publication US20230126568A1, “PRODUCTION METHOD FOR […] AND UTILIZATION THEREOF” (FUJIFILM Corporation, priority 2020, published 2023).

The nature of data set [1]: Midazolam permeability of intestinal epithelial cells (apical to basolateral, cell culture insert). Format: in vitro ADME. To be noted: human; for Papp A→B at 60 min, 10 μmol/L: 10 μmol/L midazolam apical pH 6.5, basolateral pH 7.4, 37° C., read-out: Apparent permeability coefficient; for Papp at 60 min, 10 μmol/L: read-out: Apparent permeability coefficient after correction. How it is done: The midazolam permeability of the intestinal epithelial cells obtained in Comparative Examples 1 and Examples 1 to 5 was evaluated. After the end of the induction of differentiation, HBSS (pH 6.5) was added to the apical side and HBSS (pH 7.4) was added to the lower bottom (basolateral) side, and pre-incubation was carried out at 37° C. for 60 minutes. Then, HBSS (pH 6.5) containing 10 μmol/L midazolam was added to the apical side, and HBSS (pH 7.4) was added to the lower bottom (basolateral) side, and incubation was carried out at 37° C. for 60 minutes. A sample was collected from the lower bottom (basolateral) side every 15 minutes. The amount of each compound (unchanged form) was quantified using a liquid chromatography-mass spectrometer (LC-MS/MS). The apparent permeability coefficient (Papp) was calculated from the quantification result.
The apparent permeability coefficient was corrected by using the scaling factor x for the apparent permeability coefficient of Example 4 obtained in Test Example 6. At this time, the following expression was used.
The permeation amount per unit time=(the B60 substrate amount−x ×the difference in the B60 substrate amount due to the presence or absence of the addition of the metabolism inhibitor)/the permeation time

The conditions of data set [2]: small intestine of a living body; cited from earlier work.
Data set [3] relates to small intestinal tissue of a living body. To be noted: in vitro; cited from earlier work.
Data set [4] relates to intestinal epithelial cells. Put plainly: Fg of midazolam calculated from the permeation test (Expression 1 / Expression 2). Format: in vitro ADME, human. To be noted: cells of Example 4. As to the method:
Fg=(the B60 substrate amount+the cell 60 substrate amount)/(the B60 substrate amount +cell 60 substrate amount+the total 60 metabolite amount) (Expression 1)
The B60 substrate amount: The mass of the substrate permeated to the B side 60 minutes after the test substance serving as a substrate was added to the A side.
The cell 60 substrate amount: The mass of the substrate accumulated in the cells 60 minutes after the test substance serving as a substrate was added to the A side.
The total 60 metabolite amount: Total amount of the metabolite accumulated on the A, on the B side, and in the cells 60 minutes after the test substance serving as a substrate was added to the A side.

For `Cc1ncc2n1-c1ccc(Cl)cc1C(c1ccccc1F)=NC2` [midazolam], the Papp A→B at 60 min, 10 μmol/L in data set [1] (cells of Comparative Example 1) came to 48 ×10⁻⁶ cm/s; in data set [1] (cells of Example 1) it was 30 ×10⁻⁶ cm/s; in data set [1] (cells of Example 2), 32 ×10⁻⁶ cm/s; in data set [1] (cells of Example 3), 33 ×10⁻⁶ cm/s; in data set [1] (cells of Example 4) it was 31 ×10⁻⁶ cm/s; in data set [1] (cells of Example 5), 31 ×10⁻⁶ cm/s. For the same compound, the Papp at 60 min, 10 μmol/L was 21.9 ×10⁻⁶ cm/s in data set [1] (cells of Example 4, scaling factor x = 2); 15.2 ×10⁻⁶ cm/s in data set [1] (cells of Example 4, scaling factor x = 3); 8.6 ×10⁻⁶ cm/s in data set [1] (cells of Example 4, scaling factor x = 4); 1.9 ×10⁻⁶ cm/s in data set [1] (cells of Example 4, scaling factor x = 5); 0.6 ×10⁻⁶ cm/s in data set [1] (cells of Example 4, scaling factor x = 5.2). Further, in data set [2], the “Fa (absorption rate in the intestinal tract)” value is recorded as 1.0. In addition, in data set [3], the apparent permeability coefficient is 5 ×10⁻⁶ cm/s. For the same compound, in data set [4] (no scaling factor), the “Fg simply calculated by Expression 1” value was 0.83. Moreover, the Fg after correction in data set [4] (scaling factor x = 1) was 0.83; in data set [4] (scaling factor x = 2), 0.70; in data set [4] (scaling factor x = 4), 0.54; in data set [4] (scaling factor x = 6), 0.44; in data set [4] (scaling factor x = 8), 0.37; in data set [4] (scaling factor x = 10), 0.32. The Fg after correction in data set [4] (scaling factor x = 12) was 0.28.
